For orientation: IC50 means the concentration needed to halve the response being measured. Lower therefore signals greater potency in that assay.

Experimental findings from PubChem BioAssay AID1417 (Emory University Molecular Libraries Screening Center, 2008) are described below.

SMILES strings stand for the structures.

The target of this experiment is Induced myeloid leukemia cell differentiation protein Mcl-1 (Homo sapiens) (UniProt Q07820). Nature of the experiment: Mcl-1 Noxa peptide disruption concentration-response – biochemical, TR-FRET, dose response (AID 1417). The following applies: Mcl-1/Noxa peptide interaction, cell-free TR-FRET (terbium/rhodamine), 2 h; measured here: absolute IC50. Background: TR-FRET usually uses a lanthanide donor and a delayed reading to cut background.
Sequence of Induced myeloid leukemia cell differentiation protein Mcl-1 (Homo sapiens) (Q07820 whole entry, looked up): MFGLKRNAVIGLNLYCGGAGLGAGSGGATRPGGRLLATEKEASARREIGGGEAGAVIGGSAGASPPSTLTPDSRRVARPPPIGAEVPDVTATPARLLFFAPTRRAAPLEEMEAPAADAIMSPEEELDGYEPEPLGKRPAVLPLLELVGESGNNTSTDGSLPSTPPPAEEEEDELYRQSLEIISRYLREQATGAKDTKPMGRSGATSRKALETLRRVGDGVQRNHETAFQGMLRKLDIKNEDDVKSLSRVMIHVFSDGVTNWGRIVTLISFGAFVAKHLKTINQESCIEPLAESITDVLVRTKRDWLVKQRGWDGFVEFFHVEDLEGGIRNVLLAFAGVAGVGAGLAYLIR
For `COCCCNC(=O)/C(C#N)=C/c1ccc(OCC(=O)O)c(OC)c1`, the IC50 came to 3.46 µM. The value for `COC(=O)N/N=C/c1cc(N=Nc2ccccc2Cl)ccc1O` was 3.74 µM; that for `Cc1cc2nc(/C=C/c3nc4cc(C)c(C)cc4[nH]3)[nH]c2cc1C` was 4.54 µM. Compound `CSc1cnn(Cc2ccccc2)c(=O)c1SCc1ccccc1` displayed an IC50 of more than 54 µM. The value for `Oc1ccccc1C1Nc2cccc3cccc(c23)N1` was 6.64 µM; that for `CC(=O)Nc1ccc(-c2csc(NC(=O)C3CC(=O)N(c4ccc5c(c4)OCCO5)C3)n2)cc1` (centres undefined) was 3.25 µM. As for `O=[N+]([O-])c1ccccc1/C=C/C=N/n1c(-c2ccccc2)n[nH]c1=S`, the figure is more than 54 µM. Consider `O=C1NC(=S)N(c2ccc(F)cc2)C(=O)/C1=C\c1ccoc1`, for which the IC50 is less than 0.4 µM. As for `COc1ccc(-c2csc(NC(=S)NC(=O)c3cccs3)n2)cc1OC`, the figure is 3.31 µM; as for `NC(=O)c1ccsc1NC(=O)COC(=O)/C=C/c1ccc([N+](=O)[O-])cc1`, 2.88 µM. As for `CNC(=O)COC(=O)c1cc(-c2ccco2)nc2ccccc12`, the figure is 3.16 µM; as for `O=[N+]([O-])c1ccc(-c2c[nH]c(=S)[nH]2)cc1`, 0.8 µM; as for `O=C(O)CCc1nc(-c2cccs2)no1`, more than 54 µM.

On to `O=C(COC(=O)c1ccc2c(c1)C(=O)N(Cc1ccncc1)C2=O)Nc1ccccc1[N+](=O)[O-]`, for which the IC50 amounted to 2.53 µM. On to `O=C(O)c1cccc(N/N=C/C2=C(Cl)c3cc(Cl)ccc3SC2)c1`, for which the concentration for half-maximal inhibition (IC50) came to 4.33 µM. The value for `O=C(O)c1cccc(-c2ccc(/C=c3/sc4nc5ccccc5n4c3=O)o2)c1` was 1.02 µM. The value for `O=C(O)CCn1cc(C=C2C(=O)NC(=S)NC2=O)c(-c2cc3ccccc3oc2=O)n1` was 3.08 µM; that for `Cc1nc(C)c(C(=O)Nc2nc3c(C)cccc3s2)o1` was 2.63 µM; that for `CCC1=NN2C(=N)/C(=C\c3ccc(OCc4cc(=O)n5nc(CC)sc5n4)c(OC)c3)C(=O)N=C2S1` was 2.31 µM. For the compound `Cc1c(Cc2ccccc2)c(=O)oc2c(O)c(O)ccc12`, the IC50 was found to be 33.9 µM.

Consider `O=C1NC(=S)N/C1=C/c1cccn1-c1ccc([N+](=O)[O-])cc1`, for which the IC50 is more than 54 µM. The value for `COc1cc(/C=C(\C#N)c2nc3ccc(C)cc3[nH]2)cc([N+](=O)[O-])c1O` was 3.44 µM; that for `O=C(O)CCCCCN1C(=O)/C(=C\c2ccc(-c3ccc(Cl)cc3)o2)SC1=S` was 1.36 µM; that for `COc1cc2cc3c(N)c(C(=O)Nc4sc(C)c(C)c4C#N)sc3nc2cc1OC` was 1.07 µM. The value for `Oc1cc2c(cc1C(c1ccc(Cl)c(Cl)c1)N1CCCC1)OCO2` (centres undefined) was more than 54 µM. As for `CCCCOC(=O)Nc1ccc(N(C)C)cc1`, the figure is 52.5 µM; as for `CN(CCC#N)C(=O)COC(=O)c1c2c(nc3ccccc13)/C(=C/c1ccco1)CC2`, 1.63 µM; as for `Cc1ccc(-c2nnc3ccc(SC(C)C(=O)O)nn23)cc1` (centres undefined), 4.71 µM. Compound `COc1ccccc1NC(=O)C(=O)N/N=C/c1ccc([N+](=O)[O-])s1` returned an IC50 of 6.17 µM. For the compound `Cn1c(N)c(C(=O)COC(=O)c2cc(-c3ccco3)nc3ccccc23)c(=O)n(C)c1=O`, the IC50 was determined as 3.41 µM. As for `CNc1ccc(Br)cc(C(=O)/C=C/c2cccc(Cl)c2Cl)c1=O`, the figure is 0.439 µM; as for `Cc1cccc2c1c1ccc3c(c1n2C)C(=O)C=CC3=O`, less than 0.4 µM. As for `CC(/C=C1\SC(=S)N(NS(=O)(=O)c2ccc(C)cc2)C1=O)=C\c1ccccc1`, the figure is 5.66 µM. As for `Cc1[nH]n(-c2ncc(-c3ccccc3)s2)c(=O)c1C(c1ccc(Cl)cc1)C(C#N)C#N` (centres undefined), the figure is 12.2 µM; as for `CS(=O)(=O)c1ccc2c(c1)SC1=NC(=O)/C(=C/c3ccco3)C(=N)N12`, 2.19 µM.

Compound `Cc1cccc(NC(=O)CSc2nnc(-c3ccco3)c(-c3ccco3)n2)c1` gave an IC50 of 6.58 µM. Compound `O=C1c2ccc([N+](=O)[O-])cc2NC(c2ccco2)N1/N=C/c1ccco1` (centres undefined) yielded an IC50 of more than 54 µM. In turn, `Cc1ccc(-n2nc(C)cc2NC(=O)COc2cc(C)cc3oc(=O)c4c(c23)CCC4)cc1` registered an IC50 of more than 54 µM. As for `O=C(Nc1ccc(S(=O)(=O)Nc2nccs2)cc1)c1cc(-c2ccncc2)nc2ccccc12`, the figure is less than 0.4 µM; as for `CNC(=S)Nc1sc2c(c1C(=O)OC)CCC2`, 1.32 µM.

Take `CC(C)(C)C1CCc2c(C(=O)NNC(=O)CCC(=O)O)csc2C1` (centres undefined): the IC50 was more than 54 µM.

Take `O=c1c2ccccc2nc(-c2ccco2)n1-c1cccnc1`: the IC50 is more than 54 µM. `O=C(O)c1ccc(Nc2nc(-c3cc4ccccc4oc3=O)cs2)cc1O`: the IC50 amounted to 5.36 µM. Compound `Cc1ccc(N=C2NC(=O)/C(=C/C=C/c3ccco3)S2)cc1` came in with an IC50 of 7.16 µM. As for `CC1Oc2cc3c(-c4c(O)cc(O)c5c(O)c6c(cc45)OC(C)C(C)C6=O)c(O)cc(O)c3c(O)c2C(=O)C1C` (centres undefined), the figure is less than 0.4 µM.

Turning to `C=C(C)C(=O)Nc1cccc(C2=NOC3(C2)C[C@H](C(N)=O)N(C(=O)/C=C/C)C3)c1` (some centres undefined), the IC50 came to 2.94 µM. As for `Cc1cccc(NC(=O)c2cccs2)n1`, the figure is more than 54 µM. In turn, `Clc1cccc(/C=N/Nc2nc(Cl)nc3ccccc23)c1` showed an IC50 of more than 54 µM. For `CC1C(=O)NN=C1C(=O)N/N=C\c1ccc(O)cc1O` (centres undefined), the IC50 was less than 0.4 µM. `CCc1ccc(-n2cccc2/C=C2/C(=N)N3C(=NC2=O)SN=C3S(C)(=O)=O)cc1` displayed an IC50 of 4.43 µM.

Turning to `COc1ccc(/C=C2/C(=O)N(c3nc4ccccc4s3)N=C2CSc2ccc(Cl)cc2)cc1`, the IC50 is less than 0.4 µM. As for `O=C(NC1CCCCC1)c1sc(=S)n2c1[nH]c(=O)c1ccccc12`, the figure is 15.9 µM; as for `O=C(Cc1cccs1)N/N=C/C=C\c1ccco1`, more than 54 µM. On to `COc1ccc(O)c(N)c1`, for which the IC50 is less than 0.4 µM.

`CC(=O)c1ccc2c(c1)C1C=CCC1C(C(=O)O)N2` (centres undefined) gave an IC50 of less than 0.4 µM. `CC1CCc2c(sc(Nc3nc4c(F)cccc4s3)c2C(N)=O)C1` (centres undefined) returned an IC50 of less than 0.4 µM. The value for `O=C(COC(=O)c1cc(-c2ccco2)nc2ccccc12)NCc1ccc2c(c1)OCO2` was 29.4 µM; that for `Cc1cccc(OCCCC(=O)Nc2ccc(N(C)C)cc2)c1` was 1.8 µM. As for `N#Cc1c2nc3ccccc3nc2n2cc(NC(=O)c3ccc(F)cc3)ccc12`, the figure is less than 0.4 µM; as for `Cc1cc(SCC(=O)N/N=C/c2ccc(O)c(O)c2O)c(C)cc1Br`, less than 0.4 µM; as for `Cc1cccn2c(=O)c3cc(C(=O)NCc4ccco4)c(=N)n(CCc4ccccc4)c3nc12`, 3.15 µM.

Compound `CC(=O)c1sc2nc(-c3cccs3)ccc2c1N` registered a 50% inhibitory concentration (IC50) of more than 54 µM.

`O=C(CNC(=O)C(c1ccccc1)c1ccccc1)N/N=C/c1cccnc1` yielded an IC50 of more than 54 µM. The value for `COc1cc(/C=C2\SC(=O)N(Cc3ccc(F)cc3)C2=O)cc([N+](=O)[O-])c1O` was 7.01 µM. For `O=C1NN(c2ccc(Cl)cc2)C(=O)/C1=C\c1ccc(-c2cccc(C(=O)O)c2)o1`, the half-inhibitory concentration (IC50) is 0.894 µM.

The compound `CNc1ccc(Br)cc(C(=O)/C=C/c2ccc(Cl)cc2Cl)c1=O` registered an IC50 of 1.41 µM. The value for `O=C(CNc1ccc2ccccc2c1)N/N=C/C=C/c1cccc([N+](=O)[O-])c1` was 7.27 µM; that for `COc1ccc(NC(=O)c2cc(-c3ccco3)nc3ccccc23)cc1S(=O)(=O)N1CCOCC1` was less than 0.4 µM; that for `Cc1ccc(-c2nn(-c3ccccc3)cc2/C=C2\SC(=S)N(CC(=O)O)C2=O)cc1` was 4.63 µM. As for `CCOC(=O)CC1=CSC2=NS(=O)(=O)CCN12`, the figure is more than 54 µM; as for `O=C(Nc1ccc(N2CCOCC2)cc1)Nc1ccc(Cl)c(Cl)c1`, more than 54 µM; as for `COc1cc(C(=O)Nc2ccc(N(C)C)cc2)cc(OC)c1OC`, more than 54 µM.

As to `COc1ccc(C(CC(=O)N2CCCC2)c2c(OC)cc(OC)c3c(-c4ccccc4)cc(=O)oc23)cc1` (centres undefined), the IC50 was determined as 3.89 µM.

Turning to `COc1ccc(N2CCC(CNC(=O)Nc3cccc(OC)c3)C2)cc1` (centres undefined), the IC50 is more than 54 µM. The value for `C=CCc1c(C)nc(SCCC)[nH]c1=O` was more than 54 µM; that for `CC(/C=C1\SC(=S)N(NS(=O)(=O)c2ccccc2)C1=O)=C\c1ccccc1` was 17.9 µM.

Compound `Oc1cc2c(cc1O)C1c3ccc(O)c(O)c3OCC1(O)C2` (centres undefined) registered an IC50 of less than 0.4 µM. As for `Fc1cccc(NC(=S)NNc2c3ccccc3nc3ccccc23)c1`, the figure is 3.31 µM; as for `CC1CCCCC12NC(=O)N(CC(=O)Nc1sc3c(c1C(N)=O)CCC3)C2=O` (centres undefined), 3.97 µM; as for `O=C1NC(=O)N(c2ccccc2)C(=O)/C1=C\c1ccc2c3c(cccc13)CC2`, 8.21 µM. The value for `CC1=NNC(=O)C1CC(=O)N/N=C(\C)c1ccco1` (centres undefined) was more than 54 µM; that for `COc1ccc(C(c2c(O)ccc3ccccc23)N2CCOCC2)c(OC)c1` (centres undefined) was less than 0.4 µM; that for `C=C(C)C(=O)Nc1cccc(C2=NOC3(C2)C[C@@H](C(N)=O)N(C(=O)/C(C)=C/C)C3)c1` (some centres undefined) was more than 54 µM. As for `Cc1cc(C)c2c(c1)C1C=CCC1C(c1ccc(S(=O)(=O)N3CCOCC3)cc1)N2` (centres undefined), the figure is 2.05 µM; as for `Cc1ccc(-n2c(O)c(/C=N/Nc3ccc(S(=O)(=O)N4CCOCC4)cc3[N+](=O)[O-])c3ccccc3c2=O)c(C)c1`, more than 54 µM.

Take `Cn1c(=O)c2c(nc(NCc3ccco3)n2CC(O)COc2ccccc2)n(C)c1=O` (centres undefined): the IC50 is more than 54 µM. As for `O=[N+]([O-])c1cc(S(=O)(=O)c2ccc(O)c([N+](=O)[O-])c2)ccc1O`, the figure is 0.846 µM; as for `O=C(O)c1ccc(N2C(=O)/C(=C/c3ccc(-c4ccc([N+](=O)[O-])cc4)o3)C=C2c2ccccc2)cc1`, less than 0.4 µM.

The compound `CCC(=O)N(CC)C1=C(O)c2ccccc2C(=O)C1=O` returned an IC50 of 0.997 µM. Compound `O=C(NCc1ccccn1)c1ccc2nc(-c3ccco3)c(-c3ccco3)nc2c1` came in with an IC50 of 1.38 µM. The value for `COc1cc(C2C(C#N)=C(N)OC3=C2C(=O)CCC3)c([N+](=O)[O-])cc1OC` (centres undefined) was 5.16 µM.

Regarding `Nc1nc2c(c(=O)[nH]1)C(c1cccc3ccccc13)C1=C(N2)c2ccccc2C1=O` (centres undefined), the half-maximal inhibitory concentration (IC50) worked out at 4.17 µM.

Turning to `O=C(O)c1cccc2c1NC(C(=O)O)C1CC(Sc3ccccc3[N+](=O)[O-])C(Cl)C21` (centres undefined), the IC50 was found to be 0.881 µM. As for `CNc1ccc(Br)cc(C(=O)/C=C/c2cccc(OC)c2)c1=O`, the figure is 4.9 µM.
